According to patent US20170311599A1, “Target for Anthelmintic Development, and Anthelmintics Utilizing the Same” (The University of Toledo, priority 2016, published 2017):
“Also recorded” adds a separate entry of the source. Like-named read-outs stand apart in the source and are kept apart here.

What was measured:
[1] = molecular target: C. elegans 5-HT1-like receptor SER-4 (Caenorhabditis elegans, UniProt G5EGH0); assay: in vivo; assay type: in vivo; details: for activity from observations of nematode locomotion: FIGS. 9A-9B; for effect on locomotion: SER-4 in cholinergic motor neurons
wild type C. elegans = assay: Paralysis assay on agar plates, wild type C. elegans; assay type: in vivo, Caenorhabditis elegans
[2] = molecular target: T1, Drosophila 5-HT1 orthologue (5HT1A) (Drosophila melanogaster, UniProt P28285); assay: Paralysis assay, 5-HT quint expressing Drosophila 5-HT1 orthologue in cholinergic motor neurons; assay type: in vivo
T1 sequence (P28285 1-834): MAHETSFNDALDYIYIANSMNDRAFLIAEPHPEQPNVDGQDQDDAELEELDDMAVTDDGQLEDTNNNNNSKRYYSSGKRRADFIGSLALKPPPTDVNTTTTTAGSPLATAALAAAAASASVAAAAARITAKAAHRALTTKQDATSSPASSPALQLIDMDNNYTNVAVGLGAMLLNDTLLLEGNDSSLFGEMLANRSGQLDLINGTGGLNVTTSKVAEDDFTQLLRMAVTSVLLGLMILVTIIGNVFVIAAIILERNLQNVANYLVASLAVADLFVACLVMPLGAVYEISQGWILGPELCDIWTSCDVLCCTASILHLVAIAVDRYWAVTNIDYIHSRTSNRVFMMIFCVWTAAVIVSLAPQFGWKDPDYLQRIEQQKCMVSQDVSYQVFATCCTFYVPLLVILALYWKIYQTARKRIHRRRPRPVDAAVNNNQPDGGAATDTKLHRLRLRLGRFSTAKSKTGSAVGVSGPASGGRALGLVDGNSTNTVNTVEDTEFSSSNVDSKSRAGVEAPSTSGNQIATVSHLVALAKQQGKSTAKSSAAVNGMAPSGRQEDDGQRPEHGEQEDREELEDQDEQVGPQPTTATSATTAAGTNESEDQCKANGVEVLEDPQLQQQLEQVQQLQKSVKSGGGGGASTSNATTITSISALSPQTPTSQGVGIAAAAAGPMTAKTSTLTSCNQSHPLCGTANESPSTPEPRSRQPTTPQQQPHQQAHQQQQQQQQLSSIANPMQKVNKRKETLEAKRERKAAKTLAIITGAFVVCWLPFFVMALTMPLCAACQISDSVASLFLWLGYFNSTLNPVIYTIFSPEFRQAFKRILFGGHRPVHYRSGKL

[3] = molecular target: T2, human 5-HT1A receptor (HTR1A) (Homo sapiens, UniProt P08908); assay: Paralysis assay, 5-HT quint expressing human 5-HT1A receptor in cholinergic motor neurons; assay type: in vivo, Caenorhabditis elegans
T2 construct: GFP (C); clone ID: 9020250
T2 sequence (P08908 1-422): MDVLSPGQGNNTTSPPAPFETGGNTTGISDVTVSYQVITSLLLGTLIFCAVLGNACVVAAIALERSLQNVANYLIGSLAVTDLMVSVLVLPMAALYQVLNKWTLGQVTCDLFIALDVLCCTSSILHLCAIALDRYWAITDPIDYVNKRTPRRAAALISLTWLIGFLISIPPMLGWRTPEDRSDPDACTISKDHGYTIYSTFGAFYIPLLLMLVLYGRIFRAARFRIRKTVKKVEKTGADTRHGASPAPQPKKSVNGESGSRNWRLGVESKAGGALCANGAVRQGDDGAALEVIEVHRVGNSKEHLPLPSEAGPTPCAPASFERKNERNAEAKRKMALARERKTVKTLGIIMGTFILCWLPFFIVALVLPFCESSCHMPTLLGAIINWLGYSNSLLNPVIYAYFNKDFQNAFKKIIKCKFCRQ

[4] = system: Haemonchus contortus exsheathed L3 larvae; assay: Gastrointestinal nematode (HC) motility assay (exsheathed L3); assay type: in vivo; details: exsheathed L3, 96 hours, >50% decrease in motility
Method: For the gastrointestinal nematode (HC) motility assay ([…]3), compounds were dissolved in DMSO and half log dilutions were placed into individual wells. To each well was added approximately 100 Haemonchus contortus […]3 larvae in a buffered nutrient media containing glucose and antibiotic panel resulting in a final concentration curve ranging from 100 μM to 1 nM. […] The data reported is minimum efficacious dose (MED), which is the lowest concentration where there was a >50% decrease in motility compared to the DMSO controls.

[5] = system: flea (Ctenocephalides felis); assay: Flea (FF) membrane feed assay (adult); assay type: in vivo; details: adult fleas fed treated blood, 24 hours, lowest dose causing mortality ≧50%
Method: For the flea (FF) membrane feed assay (adult), compounds were dissolved in DMSO and aliquots were added to citrated bovine blood in membrane covered wells warmed to 37° C. Adult fleas were newly emerged (3-7 days) and unfed. Feeding wells containing approximately 10 adult fleas were placed onto the treated blood wells, and the fleas were allowed to feed on the treated blood for 24 hours. […] Each compound was tested at half-log intervals, and endpoint data was recorded as Minimum Effective Concentration (MEC) in μM. MEC is a subjective visual assessment of organism viability, and is the lowest dose to cause mortality ≧50%.

[6] = system: heartworm (Dirofilaria immitis) microfilaria; assay: Heartworm (HW) motility assay (microfilaria); assay type: in vivo; set-up: activity against heartworm: dose or concentration left out as unconfirmed; details: for HW (n = 2 mean), minimum efficacious dose (MED): microfilaria, 72 hour incubation, >50% decrease in motility
Method: For the heartworm (HW) motility assay (microfilaria), compounds were dissolved in DMSO and half log dilutions were placed into individual wells. […] […] The data reported is minimum efficacious dose (MED), which is the lowest concentration where there was a >50% decrease in motility compared to the DMSO controls.

[7] = molecular target: C. elegans LGC-55 (TA-gated Cl- channel) (Caenorhabditis elegans, UniProt G5EEC1); assay: Paralysis assay, TA quad expressing C. elegans LGC-55
[8] = system: TA quad animals (lack all previously identified TA receptors); assay: Paralysis assay, quadruple TA receptor null C. elegans (TA quad); assay type: in vivo, Caenorhabditis elegans
[9] = molecular target: H. contortus (Hco) LGC-55 orthologue (Haemonchus contortus, UniProt D7F471); assay: in vivo
[10] = system: 5-HT quint animals (C. elegans lacking all previously identified 5-HT receptors); assay: Paralysis assay, quintuple 5-HT receptor null C. elegans (5-HT quint); assay type: in vivo, Caenorhabditis elegans; details: for effect on locomotion: 5-HT quint, 5-HT
[11] = molecular target: H. contortus (Hco) MOD-1 orthologue (Haemonchus contortus, UniProt M9MR50); assay: in vivo
bus-17 (e2800) mutants = assay: whole plant or invertebrate; assay type: in vivo; details: Caenorhabditis elegans, 10 min, read-out: EC50 of 5-HT-dependent paralysis
[12] = system: Drosophila histamine-gated Cl- channel (HisCl1)
[13] = system: C. elegans 5-HT1-like receptor SER-4; assay: in vivo; assay type: in vivo, Caenorhabditis elegans; details: paralysis screen, FIGS. 9A-9B
[14] = exogenous 5-HT (1 mM), hypotonic

C. elegans 5-HT1-like receptor SER-4 (Caenorhabditis elegans, UniProt G5EGH0), sequence (G5EGH0 entry or part of it): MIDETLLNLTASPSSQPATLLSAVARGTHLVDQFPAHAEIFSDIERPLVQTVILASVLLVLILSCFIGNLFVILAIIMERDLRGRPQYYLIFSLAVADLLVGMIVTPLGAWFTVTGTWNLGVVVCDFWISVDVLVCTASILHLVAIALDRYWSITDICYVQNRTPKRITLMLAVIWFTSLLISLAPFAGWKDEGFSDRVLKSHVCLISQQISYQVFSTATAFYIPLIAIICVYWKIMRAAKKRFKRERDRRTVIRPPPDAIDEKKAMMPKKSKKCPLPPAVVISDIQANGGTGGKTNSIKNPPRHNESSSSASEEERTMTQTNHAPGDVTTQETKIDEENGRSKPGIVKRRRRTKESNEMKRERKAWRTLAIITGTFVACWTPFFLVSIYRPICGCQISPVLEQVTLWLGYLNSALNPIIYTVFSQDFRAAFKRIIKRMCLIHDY
H. contortus (Hco) LGC-55 orthologue, sequence (D7F471 entry or part of it): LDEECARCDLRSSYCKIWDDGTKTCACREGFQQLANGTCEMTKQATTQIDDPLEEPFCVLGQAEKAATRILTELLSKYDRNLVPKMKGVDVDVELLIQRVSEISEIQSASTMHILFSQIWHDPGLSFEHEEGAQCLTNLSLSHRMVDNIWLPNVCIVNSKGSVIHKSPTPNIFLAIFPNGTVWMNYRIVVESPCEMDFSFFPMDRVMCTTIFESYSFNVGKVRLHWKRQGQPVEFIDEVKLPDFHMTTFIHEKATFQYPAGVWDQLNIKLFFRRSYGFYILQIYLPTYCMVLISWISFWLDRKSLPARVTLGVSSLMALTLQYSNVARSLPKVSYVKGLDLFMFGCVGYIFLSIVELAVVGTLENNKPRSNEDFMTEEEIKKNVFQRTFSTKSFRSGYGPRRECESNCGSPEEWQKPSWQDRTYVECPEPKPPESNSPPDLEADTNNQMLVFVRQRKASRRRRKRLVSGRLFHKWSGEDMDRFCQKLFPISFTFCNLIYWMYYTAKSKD
H. contortus (Hco) MOD-1 orthologue, sequence (M9MR50 entry or part of it): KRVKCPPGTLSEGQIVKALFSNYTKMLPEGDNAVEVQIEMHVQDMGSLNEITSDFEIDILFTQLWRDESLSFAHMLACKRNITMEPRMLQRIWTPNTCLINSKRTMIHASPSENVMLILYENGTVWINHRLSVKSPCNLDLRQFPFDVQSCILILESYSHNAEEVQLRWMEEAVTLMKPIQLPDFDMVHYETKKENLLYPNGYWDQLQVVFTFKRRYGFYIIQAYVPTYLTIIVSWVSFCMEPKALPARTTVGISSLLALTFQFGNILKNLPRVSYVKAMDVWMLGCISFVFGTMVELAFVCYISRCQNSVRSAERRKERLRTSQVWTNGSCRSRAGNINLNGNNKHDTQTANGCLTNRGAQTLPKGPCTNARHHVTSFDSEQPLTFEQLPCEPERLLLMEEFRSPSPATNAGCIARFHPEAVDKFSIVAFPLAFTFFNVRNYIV
C. elegans LGC-55 (TA-gated Cl- channel), sequence (G5EEC1 entry or part of it): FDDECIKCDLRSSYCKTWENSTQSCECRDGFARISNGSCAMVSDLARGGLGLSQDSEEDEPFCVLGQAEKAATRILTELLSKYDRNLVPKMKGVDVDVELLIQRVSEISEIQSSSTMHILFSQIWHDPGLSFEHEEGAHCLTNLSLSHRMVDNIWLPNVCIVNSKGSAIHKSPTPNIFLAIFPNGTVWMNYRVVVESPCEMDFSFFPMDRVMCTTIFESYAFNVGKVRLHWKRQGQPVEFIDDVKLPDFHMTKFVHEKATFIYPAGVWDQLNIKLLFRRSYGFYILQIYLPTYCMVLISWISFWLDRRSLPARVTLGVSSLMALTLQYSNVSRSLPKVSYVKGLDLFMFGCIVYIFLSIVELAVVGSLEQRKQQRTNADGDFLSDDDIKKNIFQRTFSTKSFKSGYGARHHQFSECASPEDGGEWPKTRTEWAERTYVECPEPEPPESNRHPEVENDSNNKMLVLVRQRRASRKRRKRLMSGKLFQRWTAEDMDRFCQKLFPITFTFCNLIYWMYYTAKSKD

`CCCc1[nH]c2ccc(OC)cc2c1/C=C/C(=O)c1ccncc1` [CD3-980] was tested, and the “activity from observations of nematode locomotion” value (from here on “activity from observations”) [1] was “at least moderate activity with favorable species selectivity”.
With `COc1ccc2[nH]c(CC(C)C)c(/C=C/C(=O)c3ccncc3)c2c1` [CD3-984] the “activity from observations” value [1] was “at least moderate activity with favorable species selectivity”.
With `CNS(=O)(=O)Cc1ccc2[nH]cc(CCN(C)C)c2c1` [sumatriptan, sumatriptan succinate] the “effect on locomotion” value ([1]; 0.5 mM sumatriptan) was “no effect on locomotion”, the “effect on locomotion” value (wild type C. elegans; 0.5 mM sumatriptan, hypotonic) was “no effect on locomotion” and the “effect on locomotion” value ([2]; 0.5 mM sumatriptan) was “no effect on locomotion”. The “effect on locomotion” value ([3]; 0.5 mM sumatriptan) was “no effect on locomotion” and the “paralysis” value ([3]; sumatriptan at higher concentrations (1 mM)) was “failed to fully paralyze”.
In the case of `CSCCC(NC(=O)C(Cc1ccc(O)cc1)NC(=O)Cc1c[nH]c2ccccc12)C(=O)NC(C)C(=O)O` [CD3-276, N-[(Indol-3)acetyl]-D-Tyrosyl-Methionyl-D-alanine], the “HC (n = 2 mean), minimum efficacious dose (MED)” value (“HC (n = 2 mean)” for short) [4] is reported as over 100 µg/mL, the “FF (n = 2 mean), Minimum Effective Concentration (MEC)” value (“FF (n = 2 mean)” below) [5] is reported as over 100 µg/mL and the “activity against heartworm” value [6] is reported as “inactive”. The “HW (n = 2 mean), minimum efficacious dose (MED)” value (“HW (n = 2 mean)” for short) [6] was over 100 µg/mL.
With `NCCc1ccc(O)cc1` [TA, tyramine] the EC50 [7] was about 100 µM, the “effect on locomotion” value [8] was “no effect on locomotion” and the EC50 [9] was about 100 µM.
`CCCN(CCC)C1CCc2cccc(O)c2C1` (stereo not shown) [8-OH-DPAT, 8-hydroxy-2-(di-n-propylamino) tetralin] was tested, and the “effect on locomotion” value ([1]; 8-OH-DPAT at 2 mM, hypotonic) was “no effect on locomotion”, the “effect on locomotion” value ([2]; 8-OH-DPAT at 2 mM, hypotonic) was “no effect on locomotion” and the “paralysis” value ([3]; 8-OH-DPAT (2 mM), hypotonic) was “rapidly paralyzed”.
For `COc1ccc2[nH]c(C)c(/C=C/C(=O)c3ccncc3)c2c1` [CD3-719], the “activity from observations” value [1] was “decreased activity”.
With `O=C(/C=C/c1c[nH]c2ccccc12)c1ccccc1` [CD3-664] the “HC (n = 2 mean)” value [4] was over 100 µg/mL, the “FF (n = 2 mean)” value [5] was over 100 µg/mL and the “activity against heartworm” value [6] was “active against heartworm”. For the same molecule, the “HW (n = 2 mean)” value [6] was 100 µg/mL.
For `NCCc1c[nH]c2ccc(O)cc12` [5-HT, Serotonin], the “paralysis” value ([1]; 5-HT quint expressing SER-4 in AIB interneurons (Pnpr-9), 5-HT (1 mM), hypotonic) was “rapidly paralyzed”, the “paralysis” value ([1]; 5-HT quint expressing SER-4 in cholinergic motor neurons (Punc-17β), 5-HT (1 mM), hypotonic) was “rapidly paralyzed” and the “paralysis” value ([1]; SER-4 quad (ser-5;mod-1;ser-7 ser-1 quadruple null), 15 mM 5-HT, NGM agar plates) was “rapid paralysis”. The “effect on locomotion” value ([10]; NGM agar plates) was “no effect on locomotion”, the “effect on locomotion” value ([10]; hypotonic non-NGM agar plates) was “no effect on locomotion” and the EC50 [11] was about 200 µM. The paralysis (wild type C. elegans; 1 mM 5-HT, 10 min exposure, hypotonic non-NGM agar) was 50%, the “paralysis” value (wild type C. elegans; 15 mM 5-HT, NGM agar plates) was “rapid paralysis” and the EC50 (wild type C. elegans; Caenorhabditis elegans, 10 min, isotonic NGM agar plates, 10 min, read-out: EC50 of 5-HT-dependent paralysis) was 11500 µM. For the same molecule, the EC50 (wild type C. elegans; Caenorhabditis elegans, hypotonic (agar alone without NGM, salt-free), read-out: EC50 of 5-HT-dependent paralysis) was about 400 µM, the EC50 (wild type C. elegans; hypotonic (agar alone without NGM, salt-free), read-out: EC50 of 5-HT-dependent paralysis) was about 500 µM and the EC50 (wild type C. elegans; isotonic NGM agar plates, 10 min, read-out: EC50 of 5-HT-dependent paralysis) was about 12000 µM. The EC50 (bus-17 (e2800) mutants) was about 240 µM, the “locomotion” value [2, 14] was “dramatically inhibited” and the “locomotion” value [3, 14] was “dramatically inhibited”.
With `Cl.Cl.NCCc1c[nH]cn1` [histamine, histamine dihydrochloride] the “paralysis” value (wild type C. elegans; 2 mM histamine, NGM plates) was “did not cause paralysis”, the “paralysis” value ([12]; 2 mM histamine, NGM plates) was “did not cause paralysis” and the “paralysis” value ([12]; 2 mM histamine, hypotonic assay conditions) was “caused significance paralysis”. For the same molecule, the “paralysis” value ([12]; 10 mM histamine, NGM plates) was “caused significance paralysis”.
In the case of `O=C(/C=C/c1c[nH]c2ccc(O)cc12)c1ccncc1` [CD3-718, trans-3-(5-hydroxy-1H-indol-3-yl)-1-(4-pyridinyl)-2-propen-1-one], the “paralysis” value ([1]; animals expressing the nematode 5-HT1 receptor (SER-4), 15 minutes exposure) is reported as “causing paralysis”, the “selectivity for C. elegans 5-HT1 versus human 5-HT1” value [13] is reported as “remarkable selectivity; also recorded: remarkably selective” and the “HC (n = 2 mean)” value [4] is reported as over 100 µg/mL. The “paralysis” value ([10]; 5-HT quint animals, 15 minutes exposure) was “not in animals that do not express any previously identified 5-HT receptors”, the “paralysis” value (wild type C. elegans; 15 minutes exposure) was “causing paralysis” and the “FF (n = 2 mean)” value [5] was over 100 µg/mL. The “activity against heartworm” value [6] was “inactive” and the “HW (n = 2 mean)” value [6] was over 100 µg/mL.
`Nc1ccc(CCN2CCN(c3cccc(C(F)(F)F)c3)CC2)cc1` [PAPP, p-amino-phenethyl-m-trifluoromethylphenyl piperazine] gave an EC50 [1] of 170 µM, an EC50 ([10]; Caenorhabditis elegans, 0.25 h, read-out: EC50 of PAPP-dependent paralysis) of 680 µM and an EC50 (wild type C. elegans; Caenorhabditis elegans, 0.25 h, 15 min exposure, hypotonic, read-out: EC50 of PAPP-dependent paralysis) of 370 µM.
